Measurements taken from patent US9663523B2, “BET protein-inhibiting 5-aryltriazoleazepines” (BAYER PHARMA AKTIENGESELLSCHAFT, priority 2012, dated 2017).

Assays:
[1] = molecular target: BRD4(1) (amino acids 44-168) (Homo sapiens (Human), UniProt O60885); assay: BRD4 binding strength, TR-FRET (HTRF) assay of BRD4(1) / acetylated histone H4 peptide interaction; conditions: inhibition of BRD4(1)/Ac-H4 peptide interaction
Text: To assess the BRD4 binding strength of the compounds according to the invention, the ability thereof to inhibit the interaction between BRD4 and acetylated histone H4 in a dose-dependent manner was quantified. For this purpose, a time-resolved fluorescence resonance energy transfer (TR-FRET) assay was used, which measures the binding between N-terminally His6-tagged BRD4(1) (amino acids 44-168) and a synthetic acetylated histone H4 (Ac-H4) peptide with sequence […]-biotin. The recombinant BRD4 protein produced in-house according to Filippakopoulos et al., Cell, 2012, 149:214-231 was expressed in E. coli and purified by means of (Ni-NTA) affinity and (Sephadex G-75) size exclusion chromatography. The Ac-H4 peptide can be purchased, for example, from Biosyntan (Berlin, Germany). […] For this purpose, 100-fold concentrated solutions in DMSO were prepared by serial dilutions (1:3.4) of a 2 mM stock solution into a clear, 384-well microtitre plate (Greiner Bio-One, Frickenhausen, Germany). From this, 50 nl were transferred into a black test plate (Greiner Bio-One, Frickenhausen, Germany). […] This was followed by a 10-minute incubation step at 22° C. for the pre-equilibration of putative complexes between BRD4 and the substances. Subsequently, 3 μl of a solution of 1.67 times the concentration (in assay buffer) consisting of Ac-H4 peptide (83.5 nM) and TR-FRET detection reagents [16.7 nM anti-6His-XL665 and 3.34 nM streptavidin cryptate (both from Cisbio Bioassays, Codolet, France), and 668 mM potassium fluoride (KF)] were added. The mixture was then incubated in the dark at 22° C. for one hour and then at 4° C. overnight. The formation of BRD4/Ac-H4 complexes was determined by the measurement of the resonance energy transfer from the streptavidin-Eu cryptate to the anti-6His-XL665 antibody present in the reaction. […] The ratio of the emissions at 665 nm and at 622 nm was taken as an indicator of the amount of BRD4/Ac-H4 complexes formed.

[2] = test system: LAPC-4 cells; assay: Cell proliferation (alamarBlue), LAPC-4; format: cell-based; conditions: Homo sapiens, LAPC4; prostate carcinoma (androgen receptor-positive) cell line, 168 hours incubation
Procedure: (§1) The ability of the compounds according to the invention to inhibit the proliferation of various cell lines was determined.
(§2) Cell viability was determined by means of the alamarBlue® reagent (Invitrogen). The cells were sown at different densities (MOLM-13, LAPC-4, MOLP-8 and MDA-MB-231: 4000 cells/well; B16F10: 400 cells/well) in 100 μl of growth medium on 96-well microtitre plates. After overnight incubation at 37° C., the fluorescence values (CI values) were determined. The plates were then treated with various substance dilutions and incubated at 37° C. for 96 hours (MOLM-13, MDA-MB-231 and B16F10 cells), 120 hours (MOLP-8 cells) or 168 hours (LAPC-4 cells). Subsequently, the fluorescence values were determined (CO values).
(§3) The compounds according to the invention were tested in the cell lines in Table 2, which represent the indications specified by way of example:
(§4) The indications corresponding to the different cell lines can be found in Table 2.

[3] = test system: MDA-MB-231 cells; assay: Cell proliferation (alamarBlue), MDA-MB-231; format: cell-based; conditions: Homo sapiens, mammary carcinoma cell line, 96 hours incubation
Procedure: as §1
as §2, with “values). For the data analysis, the CI values were subtracted from the CO values and the results were compared between cells which had been treated with various dilutions of the substance or only with buffer solution.” for “values).”
as §3, §4

[4] = test system: B16F10 cells; assay: Cell proliferation (alamarBlue), B16F10; format: cell-based; conditions: Mus musculus, B16-F10; melanoma cell line, 96 hours incubation
Procedure: as §1
as §2, with “values). For the data analysis, the CI values were subtracted from the CO values and the results were compared between cells which had been treated with various dilutions of the substance or only with buffer solution.” for “values).”
as §3, §4

[5] = test system: MOLM-13 cells; assay: Cell proliferation (alamarBlue), MOLM-13; format: cell-based; conditions: Homo sapiens, acute myeloid leukaemia cell line, 96 hours incubation
Procedure: as §1
as §2, with “values). For the data analysis, the CI values were subtracted from the CO values and the results were compared between cells which had been treated with various dilutions of the substance or only with buffer solution.” for “values).”
as §3, §4

[6] = test system: MOLP-8 cells; assay: Cell proliferation (alamarBlue), MOLP-8; format: cell-based; conditions: Homo sapiens, multiple myeloma cell line, 120 hours incubation
Procedure: as §1, §2, §3, §4

Compound	IC50 [1] [nM]	IC50 [2] [nM]	IC50 [3] [nM]	IC50 [4] [nM]	IC50 [5] [nM]	IC50 [6] [nM]
Cc1nnc2n1-c1ccccc1C(c1ccc(Cl)cc1)=C[C@H]2CC(=O)N1CC2CCC(C1)O2 (single isomer, unassigned; (-)) [Example 33]	450	150	1290	400	330	–
CCNC(=O)CC1C=C(c2ccc(Cl)cc2)c2ccccc2-n2c(C)nnc21 (stereo in doubt) [Example 13, (−)-2-[(4R)-6-(4-chlorophenyl)-1-methyl-4H-[1,2,4]triazolo[4,3-a][1]benzazepin-4-yl]-N-ethylacetamide]	30	60	320	150	310	–
Cc1nnc2n1-c1ccccc1C(c1ccc(Cl)cc1)=CC2CC(=O)N1CCOCC1 (stereo in doubt) [Example 15, (−)-2-[(4R)-6-(4-chlorophenyl)-1-methyl-4H-[1,2,4]triazolo[4,3-a][1]benzazepin-4-yl]-1-(morpholin-4-yl)ethanone]	40	60	350	130	230	–
Cc1nnc2n1-c1ccccc1C(c1ccc(Cl)cc1)=CC2CC(=O)N1CC(F)C1 (stereo in doubt) [Example 17, (−)-2-[(4R)-6-(4-chlorophenyl)-1-methyl-4H-[1,2,4]triazolo[4,3-a][1]benzazepin-4-yl]-1-(3-fluoroazetidin-1-yl)ethanone]	90	140	570	280	340	–
Cc1nnc2n1-c1ccccc1C(c1ccc(Cl)cc1)=CC2CC(=O)Nc1ccc2c(c1)CC(=O)N2 (stereo in doubt) [Example 21, (−)-2-[(4R)-6-(4-chlorophenyl)-1-methyl-4H-[1,2,4]triazolo[4,3-a][1]benzazepin-4-yl]-N-(2-oxo-2,3-dihydro-1H-indol-5-yl)acetamide]	80	80	480	190	170	–
Cc1nnc2n1-c1ccccc1C(c1ccc(Cl)cc1)=CC2Cc1nc(C(C)C)no1 (stereo in doubt) [Example 36, (−)-(4R)-6-(4-chlorophenyl)-1-methyl-4-{[3-(propan-2-yl)-1,2,4-oxadiazol-5-yl]methyl}-4H-[1,2,4]triazolo[4,3-a][1]benzazepine]	90	160	410	240	400	–
Cc1nnc2n1-c1ccccc1C(c1ccc(Cl)cc1)=CC2Cc1nc(C2CC2)no1 (stereo in doubt) [Example 37, (−)-(4R)-6-(4-Chlorophenyl)-4-[(3-cyclopropyl-1,2,4-oxadiazol-5-yl)methyl]-1-methyl-4H-[1,2,4]triazolo[4,3-a][1]benzazepine]	50	310	380	220	330	–
Cc1nnc2n1-c1ccccc1C(c1ccc(Cl)cc1)=CC2CC(=O)OC(C)(C)C (stereo not shown) [Example 8, tert-butyl [6-(4-chlorophenyl)-1-methyl-4H-[1,2,4]triazolo[4,3-a][1]benzazepin-4-yl]acetate]	–	820	–	1000	3910	4800
Cc1nnc2n1-c1ccccc1C(c1cccc(Cl)c1)=CC2CC(=O)N1CC2(COC2)C1 (stereo not shown) [Example 10, 2-[6-(3-chlorophenyl)-1-methyl-4H-[1,2,4]triazolo[4,3-a][1]benzazepin-4-yl]-1-(2-oxa-6-azaspiro[3.3]hept-6-yl)ethanone]	730	1610	–	3030	2630	1290
CCNC(=O)CC1C=C(c2ccc(Cl)cc2)c2ccccc2-n2c(C)nnc21 (stereo not shown) [Example 12, 2-[6-(4-chlorophenyl)-1-methyl-4H-[1,2,4]triazolo[4,3-a][1]benzazepin-4-yl]-N-ethylacetamide]	130	80	480	230	270	–
Cc1nnc2n1-c1ccccc1C(c1ccc(Cl)cc1)=CC2CC(=O)N1CC2(CCS2(=O)=O)C1 (stereo not shown) [Example 18, 2-[6-(4-chlorophenyl)-1-methyl-4H-[1,2,4]triazolo[4,3-a][1]benzazepin-4-yl]-1-(1,1-dioxido-1-thia-6-azaspiro[3.3]hept-6-yl)ethanone]	–	–	800	360	330	–
CCNC(=O)C[C@@H]1C=C(c2ccc(Cl)cc2)c2cc(OC(F)(F)F)ccc2-n2c(C)nnc21 [Example 52, 2-[(4R)-6-(4-chlorophenyl)-1-methyl-8-(trifluoromethoxy)-4H-[1,2,4]triazolo[4,3-a][1]benzazepin-4-yl]-N-ethylacetamide]	190	–	–	420	310	260
Cc1nnc2n1-c1ccc(OC(F)(F)F)cc1C(c1ccc(Cl)cc1)=C[C@H]2CC(=O)NCCN1CCOCC1 [Example 53, 2-[(4R)-6-(4-chlorophenyl)-1-methyl-8-(trifluoromethoxy)-4H-[1,2,4]triazolo[4,3-a][1]benzazepin-4-yl]-N-[2-(morpholin-4-yl)ethyl]acetamide]	80	–	–	220	150	110
Cc1nnc(CC2C=C(c3ccc(Cl)cc3)c3cc(OC(F)(F)F)ccc3-n3c(C)nnc32)o1 (stereo not shown) [Example 54, 6-(4-chlorophenyl)-1-methyl-4-[(5-methyl-1,3,4-oxadiazol-2-yl)methyl]-8-(trifluoromethoxy)-4H-[1,2,4]triazolo[4,3-a][1]benzazepine]	130	–	–	500	300	360
Cc1nnc(C[C@@H]2C=C(c3ccc(Cl)cc3)c3cc(OC(F)(F)F)ccc3-n3c(C)nnc32)o1 [Example 55, (4R)-6-(4-chlorophenyl)-1-methyl-4-[(5-methyl-1,3,4-oxadiazol-2-yl)methyl]-8-(trifluoromethoxy)-4H-[1,2,4]triazolo[4,3-a][1]benzazepine]	90	–	–	270	180	170
Cc1nnc2n1-c1ccc(OC(F)(F)F)cc1C(c1ccc(Cl)cc1)=C[C@H]2CC(=O)N1CCN2C(=O)CCC2C1 (stereo partly drawn) [Example 56, 2-{[(4R)-6-(4-chlorophenyl)-1-methyl-8-(trifluoromethoxy)-4H-[1,2,4]triazolo[4,3-a][1]benzazepin-4-yl]acetyl}hexahydropyrrolo[1,2-a]pyrazin-6(2H)-one]	180	–	–	220	150	120
Cc1nnc2n1-c1ccccc1C(c1ccc(Cl)cc1)=C[C@H]2Cc1nnc(COCc2ccccc2)o1 [Example 57, (4R)-4-({5-[(benzyloxy)methyl]-1,3,4-oxadiazol-2-yl}methyl)-6-(4-chlorophenyl)-1-methyl-4H-[1,2,4]triazolo[4,3-a][1]benzazepine]	270	–	–	570	410	420
